Measurements taken from US10434197B2, “Tetrazine-trans-cyclooctene ligation for the rapid construction of radionuclide labeled probes” (University of Delaware, priority 2010, dated 2019).
Read-outs that look alike come from different tables or passages of the source. Values belong to the compound of their own block, whether it stands above or below them.

Key:
[1] = Chemical stability of 16 (water, amine, thiol); assay type: physicochemical; conditions: 24 hours
[2] = Rate of Diels-Alder reaction with 3,6-di(2-pyridyl)-s-tetrazine (1a); assay type: physicochemical
Excerpt: The inventors have previously described tetrazine-trans-cyclooctene ligation (‘ITCO ligation’) as a method of bioconjugation that proceeds with fast reaction rates without need for catalysis (M. L. Blackman, M. Royzen and J. M. Fox, J. Am. Chem. Soc. 2008, 130, 13518-13519) trans-Cyclooctene derivatives are readily prepared from cis-cyclooctenes using a photochemical flow-reaction that the inventors developed (M. Royzen, G. P. A. Yap and J. M. Fox, J. Am. Chem. Soc. 2008, 130, 3760-3761). […] Thus, the reaction between trans-cyclooctene and 1a proceeds with a rapid rate (k2˜2000 M^−1 s^−1 in 9:1 MeOH:water), and is successful in cell media and cell lysate.
The inventors also used a photochemical flow reactor (M. Royzen, G. Yap, and J. Fox, J. Am. Chem. Soc. 2008, 130 (12), 3760) to synthesize 16, an analog of 7 with a functionalizable group. The rate of the reaction of compound 16 with 3,6-di(2-pyridyl)-s-tetrazine (1a) in methanol was k2=22000 M^−1s^−1, […] than the reaction of 1a with trans-cyclooctene in the same solvent. […] Compound 16 can be readily converted into carbamate derivatives, and compound 16 can be selectively conjugated to the protein thioredoxin using the conjugation of maleimide 26 (vide infra) to a cysteine residue, and that conjugate can in turn can take part in tetrazine ligation analogous to that shown below for compound 16.

[3] = Stability of 16 in human serum; assay type: in vitro ADME; conditions: 24 hours
[4] = Stability and isomerization of Diels-Alder conjugate 10 in water, CD3CN/H2O, PBS; assay type: physicochemical; conditions: for rearrangement to ^19F-11, conversion: CD3CN/H2O
U87MG tumor = test: in vivo; design: species or system mice; conditions: mouse
Procedure: (§1) Animal procedures were performed according to a protocol approved by the University of Southern California Institutional Animal Care and Use Committee. For static microPET scans, mice bearing U87MG xenografts were injected with 3.7 MBq (100 μCi) of ^18F-41 via the tail vein (n=3 for each group). At 0.5, 1, and 2 h post injection (p.i.), the mice were anesthetized with isoflurane (5% for induction and 2% for maintenance in 100% O2) using a knock-down box. With the help of a laser beam attached to the scanner, the mice were placed in the prone position and near the center of the field of view of the scanner. The 3-min static scans were then obtained. Images were reconstructed using a 2-dimensional ordered-subsets expectation maximization (OSEM) algorithm. No background correction was performed. Regions of interest (ROIs; 5 pixels for coronal and transaxial slices) were drawn over the tumor on decay-corrected whole-body coronal images. The maximum counts per pixel per minute were obtained from the ROI and converted to counts per milliliter per minute using a calibration constant. With the assumption of a tissue density of 1 g/mL, the ROIs were converted to counts per gram per min. Image ROI-derived % ID/g values were determined by dividing counts per gram per minute with injected dose. No attenuation correction was performed. Similarly, ^18F-43 was injected into healthy nude mice for microPET study.
(§2) Representative coronal microPET images of U87MG tumor-bearing mice (n=3/group) were obtained at different times after intravenous injection of about 3.7 MBq (100 μCi) of ^18F-41. The tumors after injection of the radiotracers were all clearly visible with good contrast to contralateral background at all time points measured. […] Quantification of tumor and major organ activity accumulation in the microPET scans was achieved by measuring regions of interest (ROIs) encompassing the entire organ on the coronal images. Tumor and major organ uptake of ^18F-41 is depicted in FIG. 3A. The tumor uptake of ^18F-41 in U87MG tumor was 1.98±0.33, 1.80±0.15, and 1.27±0.33% ID/g at 0.5, 1, and 2 h p.i., respectively. The uptake of the ^18F-41 decreased rapidly with time in the muscle, affording better image contrast at later time points after injection (2 h).

in vivo = test: in vivo; design: species or system mice; conditions: mouse, iv, 3.7 MBq, total radioactivity
Procedure: as §1, §2

[5] = 9:1 MeOH:water; cited from earlier work

stability ([1]; 5 mM ethanethiol in MeOH): no degradation
stability ([1]; 5 mM n-butylamine in MeOH): no degradation
stability ([1]; water): no degradation
stability [3]: no degradation
SMILES: OC[C@@H]1[C@H]2CC/C=C/CC[C@@H]12 [compound 16]
rate of reaction with 1a ([2]; aqueous solvent systems, UV-vis spectroscopy): too fast to measure
k2, reaction with 1a ([2]; methanol): 22000 M⁻¹ s⁻¹
rate relative to reaction of 1a with trans-cyclooctene ([2]; same solvent (methanol)): 18 times faster

stability in water [4]: stable
rearrangement to ^19F-11, conversion ([4]; after 4 hours): 11%
rearrangement to ^19F-11, conversion ([4]; after 48 hours): > 95%
SMILES: FCCO[C@@H]1CCC[C@@H]2C(c3ccccn3)=NN=C(c3ccccn3)[C@H]2CC1 [compound 10, 7-(2-fluoroethoxy)-1,4-di(pyridin-2-yl)-4a,5,6,7,8,9,10,10a-octahydrocycloocta[d]pyridazine]

SMILES: N=C(N)NCCC[C@@H]1NC(=O)[C@H](CSC2CC(=O)N(CCNC(=O)CCCC(=O)Nc3ccc(C4=NN=C(c5ccccn5)C5CCCCC(OCCF)CC45)nc3)C2=O)NC(=O)[C@@H](Cc2ccc(O)cc2)NC(=O)[C@H](CC(=O)O)NC(=O)CNC1=O (stereo partly drawn) [^18F-41]
excretion route (U87MG tumor): mainly excreted through the renal system
tissue uptake at 0.5 h (in vivo): 1.98 ± 0.33 %ID/g
tissue uptake at 1 h (in vivo): 1.8 ± 0.15 %ID/g
tissue uptake at 2 h (in vivo): 1.27 ± 0.33 %ID/g

SMILES: C1=C/CCCCCC/1 [trans-cyclooctene]
k2, reaction with 1a [5]: ~2000 M⁻¹ s⁻¹
